For one experiment, the system named is DU145. Kind of experiment: DU145 scattering inhibition (HGF dependent scattering). The class given is cell-based. Conditions: Homo sapiens, DU-145; HGF dependent scattering, DU145 cells; read-out: DU145 SCATTERING INHIB IC50. The source says: (§1) HGF has well known activity in terms of inducing scattering and migration (wound healing) (Wells et al., Cell Motil Cytoskeleton. 2005 November 62(3):180-94; Miura et al., Urology 2001 December 58(6):1064-9; Nishimura et al., Int J Urol. 1998 May 5(3):276-81; Wang et al., Mol Cancer Ther. 2003 November; 2(11):1085-92; and Christensen et al., Cancer Res. 2003 Nov. 1; 63(21):7345-55).

In the next experiment the target is T1, VEGF receptor KDR (Homo sapiens, UniProt P35968).
T1 construct: made in house; host or cells: Sf9 cells (Spodoptera frugiperda), baculovirus
Kind of experiment: In vitro receptor tyrosine kinase assay (DELFIA), VEGF receptor KDR. It is filed as biochemical. As to conditions: read-out: VEGFR IC50.

Experiment [1] concerns the target T2, recombinant human c-Met/HGF receptor (Homo sapiens, UniProt P08581).
T2 construct: His tag (pBlueBacHis2A vector); made in house; host or cells: Hi-5 cells (Trichoplusia ni), baculovirus
Kind of experiment: In vitro receptor tyrosine kinase assay (DELFIA), c-Met/HGF receptor. As to conditions: read-out: CMET IC50. It is filed as biochemical. On the procedure: Cell pellets were frozen at −80° C. until purification was performed.
The coated plates were washed and stored at 4° C. […] After incubation, the kinase reactions were quenched with EDTA and the plates were washed.

A further experiment concerns A549. Briefly: A549 wound healing inhibition (HGF dependent migration). The class given is cell-based. Conditions: Homo sapiens, A549 cells, read-out: A549 WOUND HEALING INHIB IC50.
From the text: as §1

The IC50 is the point on the concentration scale where inhibition reaches its midpoint.

Bounds are passed on as bounds.

T2 sequence (P08581 1078-1337): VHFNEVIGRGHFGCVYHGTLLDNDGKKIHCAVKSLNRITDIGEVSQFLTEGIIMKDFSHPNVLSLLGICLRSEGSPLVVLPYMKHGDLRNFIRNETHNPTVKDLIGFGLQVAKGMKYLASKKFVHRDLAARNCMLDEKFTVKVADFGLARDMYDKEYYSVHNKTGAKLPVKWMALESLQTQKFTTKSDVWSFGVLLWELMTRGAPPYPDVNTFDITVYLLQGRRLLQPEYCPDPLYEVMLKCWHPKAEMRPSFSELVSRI
T1 sequence (P35968 806-1356): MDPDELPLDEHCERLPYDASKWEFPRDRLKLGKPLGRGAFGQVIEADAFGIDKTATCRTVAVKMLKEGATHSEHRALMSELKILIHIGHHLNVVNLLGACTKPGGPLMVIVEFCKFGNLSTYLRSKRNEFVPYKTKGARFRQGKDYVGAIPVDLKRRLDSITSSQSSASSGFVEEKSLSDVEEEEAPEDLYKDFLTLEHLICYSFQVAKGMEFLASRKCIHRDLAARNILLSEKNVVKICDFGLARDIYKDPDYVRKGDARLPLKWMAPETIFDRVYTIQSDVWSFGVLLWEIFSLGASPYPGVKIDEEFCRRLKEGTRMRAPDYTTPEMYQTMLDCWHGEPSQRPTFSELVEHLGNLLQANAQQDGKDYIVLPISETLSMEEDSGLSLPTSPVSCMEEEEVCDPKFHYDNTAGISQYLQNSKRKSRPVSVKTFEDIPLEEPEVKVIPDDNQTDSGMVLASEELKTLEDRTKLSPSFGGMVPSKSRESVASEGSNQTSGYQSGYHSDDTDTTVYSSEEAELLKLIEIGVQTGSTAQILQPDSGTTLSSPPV

Consider `Cn1cnc(-c2cc3nccc(Nc4ccc(NC(=O)C5(C(=O)Nc6ccccc6)CC5)cc4F)c3s2)c1`, for which the IC50 with DU145 is less than 1000 nM; at VEGF receptor KDR it was 50 to 250 nM; in experiment [1] it was less than 50 nM; with A549, less than 1000 nM.

As to `COc1cccc(Nc2cc3nccc(Oc4ccc(NC(=O)CC(=O)Nc5ccccc5)cc4F)c3s2)c1`, the IC50 with DU145 is 1000 to 5000 nM; at VEGF receptor KDR, more than 500 nM; in experiment [1], 50 to 250 nM; with A549 it was 1000 to 5000 nM.

Turning to `COc1ccc(NC(=O)C2(C(=O)Nc3ccc(Oc4ccnc5cc(-c6cn(C)cn6)sc45)c(F)c3)CC2)cc1`, the IC50 in the experiment on DU145 is 1000 to 5000 nM; at VEGF receptor KDR, less than 50 nM; in experiment [1], 50 to 250 nM; in the experiment with A549, 1000 to 5000 nM.

Take `CCn1cnc(-c2cc3nccc(Oc4ccc(NC(=O)CC(=O)N5CCc6ccccc65)cc4F)c3s2)c1`: the IC50 in the experiment with DU145 was less than 1000 nM; on VEGF receptor KDR, less than 50 nM; in experiment [1], less than 50 nM; in the experiment with A549, less than 1000 nM.

For `CCn1cnc(-c2cc3nccc(Oc4ccc(NC(=O)CC(=O)Nc5ccccc5)cc4F)c3s2)c1C`, the half-maximal inhibitory concentration (IC50) is less than 1000 nM with DU145, less than 50 nM on VEGF receptor KDR, less than 50 nM in experiment [1] and less than 1000 nM in the experiment with A549.

With `Cn1ccnc1-c1cc2nccc(Oc3ccc(NC(=O)CC(=O)Nc4cccnc4)cc3F)c2s1` [drawing 282], the IC50 with DU145 is 1000 to 5000 nM; on VEGF receptor KDR it was less than 50 nM; in experiment [1], 250 to 500 nM; with A549, less than 1000 nM.

On to `COc1ccccc1NC(=O)CC(=O)Nc1ccc(Oc2ccnc3cc(-c4ccc(OCCCN(C)C)c(OCCCN(C)C)c4)sc23)c(F)c1`, for which the IC50 in the experiment on DU145 was more than 10000 nM; on VEGF receptor KDR, 50 to 250 nM; in experiment [1] it was less than 50 nM; in the experiment with A549, more than 10000 nM.

Take `Cn1ccnc1-c1cc2nccc(Oc3ccc(NC(=O)N4CCN(c5ccccc5)C4=O)cc3F)c2s1`: the IC50 in the experiment on DU145 was less than 1000 nM; at VEGF receptor KDR it was less than 50 nM; in experiment [1], less than 50 nM; in the experiment with A549 it was less than 1000 nM.

On to `Cn1cncc1-c1cc2nccc(Oc3ccc(NC(=O)CC(=O)Nc4ccccc4)cc3F)c2s1` [drawing 288], for which the IC50 was less than 1000 nM in the experiment with DU145, less than 50 nM at VEGF receptor KDR, less than 50 nM in experiment [1] and less than 1000 nM in the experiment with A549.

Turning to `Cn1cnc(-c2cc3nccc(Oc4ccc(NC(=O)N5CCN(c6ccc(F)cc6)C5=O)cc4F)c3s2)c1`, the IC50 in the experiment with DU145 is less than 1000 nM; on VEGF receptor KDR, less than 50 nM; in experiment [1], less than 50 nM; with A549, less than 1000 nM.

For `CN1CCN(CCN(C)Cc2ccc(-c3cc4nccc(Oc5ccc(NC(=O)CC(=O)N(C)c6ccccc6)cc5F)c4s3)cc2)CC1`, the concentration for half-maximal inhibition (IC50) with DU145 is less than 1000 nM; at VEGF receptor KDR it was less than 50 nM; in experiment [1], less than 50 nM; with A549 it was 1000 to 5000 nM.

Consider `CN1CCN(Cc2ccc(-c3cc4nccc(Oc5ccc(NC(=O)C6CCN(c7ccccc7)C6=O)cc5F)c4s3)nc2)CC1` (centres unmarked), for which the IC50 with DU145 was 1000 to 5000 nM; at VEGF receptor KDR, less than 50 nM; in experiment [1] it was 50 to 250 nM; in the experiment on A549, 1000 to 5000 nM.

Take `O=C(Nc1ccc(Oc2ccnc3cc(-c4cn(CCN5CCCC5)cn4)sc23)c(F)c1)C1CCN(c2ccccc2)C1=O` (centres unmarked): the half-inhibitory concentration (IC50) in the experiment with DU145 was less than 1000 nM; on VEGF receptor KDR it was less than 50 nM; in experiment [1], 50 to 250 nM; in the experiment on A549 it was 1000 to 5000 nM.

With `O=C(Nc1ccc(Oc2ccnc3cc(-c4cn(CCN5CCCC5)cn4)sc23)c(F)c1)N1CCN(c2ccccc2)C1=O`, the IC50 was less than 1000 nM in the experiment with DU145, less than 50 nM at VEGF receptor KDR, less than 50 nM in experiment [1] and less than 1000 nM with A549.

For `COCn1cnc(-c2cc3nccc(Oc4ccc(NC(=O)CC(=O)Nc5ccccc5OC)cc4F)c3s2)c1`, the IC50 in the experiment on DU145 is less than 1000 nM; at VEGF receptor KDR, less than 50 nM; in experiment [1], 50 to 250 nM; in the experiment on A549, 1000 to 5000 nM.

For `CC(=O)N1CC=C(c2cc3nccc(Oc4ccc(NC(=O)N5CCN(c6ccc(F)cc6)C5=O)cc4F)c3s2)CC1`, the IC50 in the experiment on DU145 was less than 1000 nM; on VEGF receptor KDR, less than 50 nM; in experiment [1], less than 50 nM; with A549, less than 1000 nM.

Turning to `CN(C)CC#Cc1cc2nccc(Oc3ccc(NC(=O)CC(=O)Nc4ccccc4F)cc3F)c2s1`, the IC50 in the experiment on DU145 is 1000 to 5000 nM; at VEGF receptor KDR, 50 to 250 nM; in experiment [1], 50 to 250 nM; with A549, more than 10000 nM.

For `CCn1cncc1-c1cc2nccc(Oc3ccc(NC(=O)CC(=O)Nc4ccccc4OC)cc3F)c2s1`, the IC50 with DU145 is less than 1000 nM; on VEGF receptor KDR it was 50 to 250 nM; in experiment [1] it was 50 to 250 nM; with A549 it was 1000 to 5000 nM.

In the case of `CCn1cnc(-c2cc3nccc(Oc4ccc(NC(=O)CC(=O)NC5CCCCC5)cc4F)c3s2)c1`, the IC50 in the experiment on DU145 was less than 1000 nM; at VEGF receptor KDR it was less than 50 nM; in experiment [1], 50 to 250 nM; in the experiment on A549, less than 1000 nM.

Regarding `Cn1cnc(-c2cc3nccc(Nc4ccc(NC(=O)C5CCN(c6ccccc6)C5=O)cc4F)c3s2)c1` (centres unmarked), the 50% inhibitory concentration (IC50) with DU145 is 1000 to 5000 nM; on VEGF receptor KDR, 250 to 500 nM; in experiment [1] it was 50 to 250 nM; with A549, less than 1000 nM.

For `CN(C)CC/C=C\c1cc2nccc(Oc3ccc(NC(=O)CC(=O)N(C)c4ccccc4)cc3F)c2s1`, the IC50 with DU145 lay in the range of 1000 to 5000 nM; on VEGF receptor KDR, 50 to 250 nM; in experiment [1] it was 50 to 250 nM; with A549, 1000 to 5000 nM.

For the compound `Cn1cnc(-c2cc3nccc(Oc4ccc(NC(=O)C5(C)CCN(c6ccccc6)C5=O)cc4F)c3s2)c1` (centres unmarked), the IC50 was 1000 to 5000 nM with DU145, 250 to 500 nM at VEGF receptor KDR, 50 to 250 nM in experiment [1] and 1000 to 5000 nM in the experiment with A549.

`CN1CC=C(c2cc3nccc(Oc4ccc(NC(=O)C5(C(=O)Nc6ccccc6)CC5)cc4F)c3s2)CC1`: the IC50 in the experiment with DU145 was less than 1000 nM; at VEGF receptor KDR, less than 50 nM; in experiment [1] it was less than 50 nM; with A549, 1000 to 5000 nM.

Take `CCn1cnc(-c2cc3nccc(Oc4ccc(NC(=O)C5(C(=O)Nc6ccccc6OC)CC5)cc4F)c3s2)c1`: the IC50 was less than 1000 nM with DU145, less than 50 nM on VEGF receptor KDR, less than 50 nM in experiment [1] and less than 1000 nM in the experiment with A549.

Regarding `CN1CCN(Cc2ccc(-c3cc4nccc(Oc5ccc(NC(=O)N6CCN(c7ccccc7)C6=O)cc5F)c4s3)cc2)CC1`, the IC50 in the experiment with DU145 was less than 1000 nM; on VEGF receptor KDR it was less than 50 nM; in experiment [1], less than 50 nM; with A549 it was less than 1000 nM.

Turning to `Cn1cnc(-c2cc3nccc(Oc4ccc(NC(=O)C5CCN(c6ccccc6)C5=O)cc4F)c3s2)c1` (centres unmarked), the IC50 in the experiment on DU145 is less than 1000 nM; at VEGF receptor KDR it was less than 50 nM; in experiment [1], less than 50 nM; with A549, less than 1000 nM.

In the case of `Cn1ccnc1-c1cc2nccc(Oc3ccc(NC(=O)CC(=O)NC4CCNCC4)cc3F)c2s1`, the half-maximal inhibitory concentration (IC50) with DU145 is more than 10000 nM; at VEGF receptor KDR it was more than 500 nM; in experiment [1], more than 500 nM; with A549 it was more than 10000 nM.

With `COc1ccccc1CCNC(=O)C(=O)Nc1ccc(Oc2ccnc3cc(-c4cn(C)cn4)sc23)c(F)c1`, the IC50 in the experiment on DU145 was more than 10000 nM; at VEGF receptor KDR, less than 50 nM; in experiment [1] it was 250 to 500 nM; in the experiment on A549, 5000 to 10000 nM.

For `CCn1cncc1-c1cc2nccc(Oc3ccc(NC(=O)CC(=O)Nc4ccccc4F)cc3F)c2s1`, the IC50 is 1000 to 5000 nM in the experiment on DU145, 50 to 250 nM on VEGF receptor KDR, 50 to 250 nM in experiment [1] and 1000 to 5000 nM with A549.

The values above are taken from patent US8329726B2, “Inhibitors of VEGF receptor and HGF receptor signaling” (MethylGene Inc., priority 2005, dated 2012).
